Source: US7786114B2, “Bis-azaindole derivatives, preparation and pharmaceutical use thereof as kinase inhibitors” (Aventis Pharma S.A., priority 2004, dated 2010)

A melting point of 218 °C was found for `COc1cc2c(nc1OC)c(-c1cc3cc(F)cnc3[nH]1)cn2CCN1CCOCC1` [Example 7, 3-(5-fluoro-1H-pyrrolo[2,3-b]pyridin-2-yl)-5,6-dimethoxy-1-(2-morpholin-4-ylethyl)-1H-pyrrolo[3,2-b]pyridine] in this work.
A melting point of 206 °C was found for `COc1cc2c(nc1OC)c(-c1cc3c(Cl)c(F)cnc3[nH]1)cn2CCN1CCOCC1` [Example 8, 3-(4-chloro-5-fluoro-1H-pyrrolo[2,3-b]pyridin-2-yl)-5,6-dimethoxy-1-(2-morpholin-4-yl-ethyl)-1H-pyrrolo[3,2-b]pyridine] in this work.
A melting point of 283 to 284 °C was found for `COc1cc2[nH]cc(-c3cc4c(Cl)c(F)cnc4[nH]3)c2nc1OC` [Example 9, 3-[4-Chloro-5-fluoro-1H-pyrrolo[2,3-b]pyridin-2-yl]-5,6-dimethoxy-1H-pyrrolo[3,2-b]pyridine] in this work.
A melting point of 110 to 114 °C was found for `COc1cc2c(nc1OC)c(-c1cc3c(Cl)c(F)cnc3[nH]1)cn2CCCN1CCCCC1` [Example 11, 3-[4-Chloro-5-fluoro-1H-pyrrolo[2,3-b]pyridin-2-yl]-5,6-dimethoxy-1-(3-piperidin-1-ylpropyl)-1H-pyrrolo[3,2-b]pyridine] in this work.
A melting point of 188 °C was found for `COc1cc2c(nc1OC)c(-c1cc3c(Cl)c(F)cnc3[nH]1)cn2CCCN1CCC(O)CC1` [Example 12, 1-{3-[3-(4-Chloro-5-fluoro-1H-pyrrolo[2,3-b]pyridin-2-yl)-5,6-dimethoxypyrrolo[3,2-b]pyridin-1-yl]propyl}piperidin-4-ol] in this work.
A melting point of 140 to 145 °C was found for `COc1cc2c(nc1OC)c(-c1cc3c(Cl)c(F)cnc3[nH]1)cn2CCCN1CCCN(C)CC1` [Example 13, 3-(4-Chloro-5-fluoro-1H-pyrrolo[2,3-b]pyridin-2-yl)-5,6-dimethoxy-1-[3-(4-methylperhydro-1,4-diazepin-1-yl)propyl]-1H-pyrrolo[3,2-b]pyridine] in this work.
A melting point of 189 °C was found for `COc1cc2c(nc1OC)c(-c1cc3c(Cl)c(F)cnc3[nH]1)cn2CCCN1CCOCC1` [Example 14, 3-(4-Chloro-5-fluoro-1H-pyrrolo[2,3-b]pyridin-2-yl)-5,6-dimethoxy-1-(3-morpholin-4-ylpropyl)-1H-pyrrolo[3,2-b]pyridine] in this work.
A melting point of 135 °C was found for `COc1cc2c(nc1OC)c(-c1cc3c(Cl)c(F)cnc3[nH]1)cn2CCCN1CCC(CN)CC1` [Example 15, C-(1-{3-[3-(4-Chloro-5-fluoro-1H-pyrrolo[2,3-b]pyridin-2-yl)-5,6-dimethoxypyrrolo[3,2-b]pyridin-1-yl]propyl}piperidin-4-yl)methylamine] in this work.
A melting point of 155 °C was found for `COc1cc2c(nc1OC)c(-c1cc3c(Cl)c(F)cnc3[nH]1)cn2CCCN1CCN(C)CC1` [Example 16, 3-(4-Chloro-5-fluoro-1H-pyrrolo[2,3-b]pyridin-2-yl)-5,6-dimethoxy-1-[3-(4-methylpiperazin-1-yl)propyl]-1H-pyrrolo[3,2-b]pyridine] in this work.
